In US5250572A (priority 1992, dated 1993):
pIC50: −log10 of the molar value.

Tests used:
serotonin uptake = conditions: words, cited from earlier work
5HT1A = target: T1, 5HT1A (Rattus norvegicus, UniProt P19327); test: Inhibition of 3H-8-hydroxy-2-(di-n-propylamino)tetralin binding to 5HT1A receptor; set-up: species or system male Sprague-Dawley); conditions: rat brain membranes, 25° C., 30 min, pH 7.4
T1 construct: brain tissues from male Sprague-Dawley rats was homogenized; from tissue; host or cells: brain of male Sprague-Dawley rats, crude synaptosomal membranes
T1 sequence (P19327 1-422): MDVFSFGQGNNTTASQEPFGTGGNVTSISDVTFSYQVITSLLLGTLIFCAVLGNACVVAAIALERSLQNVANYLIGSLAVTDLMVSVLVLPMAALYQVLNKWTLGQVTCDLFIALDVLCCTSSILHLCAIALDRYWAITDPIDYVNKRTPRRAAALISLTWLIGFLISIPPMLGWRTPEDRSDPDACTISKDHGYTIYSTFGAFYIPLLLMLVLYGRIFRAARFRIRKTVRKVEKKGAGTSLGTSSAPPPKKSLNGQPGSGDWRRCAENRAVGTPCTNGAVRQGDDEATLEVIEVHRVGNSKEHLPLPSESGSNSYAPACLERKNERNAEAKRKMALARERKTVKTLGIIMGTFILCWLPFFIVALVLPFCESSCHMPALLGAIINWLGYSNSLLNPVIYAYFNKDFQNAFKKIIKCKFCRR
Description: (§1) This general procedure is set forth by Wong et al., Life Sciences, 46, 231 (1990).
(§2) Bovine choroid plexus and brain tissues from male Sprague-Dawley rats was homogenized in 9 volumes of 0.32 M sucrose. After centrifugation at 1000×g for 10 minutes and then at 17,000×g for 20 minutes, a crude synaptosomal fraction was sedimented. The pellet was suspended in 100 volumes of 50 mM Tris-HCI, pH 7.4, incubated at 37° C. for 10 minutes, and centrifuged at 50,000×g for 10 minutes. The process was repeated, and the final pellet of membrane was suspended in ice-chilled 50 mM Tris-HCI buffer, pH 7.4.
(§3) Binding of ^3 H-mesulergine to the 5HT1C receptor and other serotonergic ^3 H-ligands to subtypes of 5HT receptors (^3 H-8-hydroxy-2-(di-n-propylamino)tetralin to 5HT1A; ^3 H-serotonin to 5HT1B and 5HT1D; ^3 H-ketanserin to 5HT2; and ^3 H-1-methyl-N-(8-methyl-8-azabicyclo[3.2.1]oct-3-yl)-1H-indazaole-3-carboxamide to 5HT3 receptors) was performed according to the method described in the above reference. Briefly, membranes isolated from bovine choroid plexus (for 5HT1C) or rat brain were incubated at 25° C. for 30 minutes in 2 ml of 50 mM Tris-HCl, pH 7.4; 10 mM pargyline, 0.6 mM ascorbic acid; 5 mM CaCl2; and 2 nM ^3 H-mesulergine or other tritiated ligand. […] Radioactivity was measured with a liquid scintillation spectrometer. […]

5HT1B = target: T2, 5HT1B (Rattus norvegicus, UniProt P28564); test: Inhibition of 3H-serotonin binding to 5HT1B receptor; set-up: species or system male Sprague-Dawley); conditions: rat brain membranes, 25° C., 30 min, pH 7.4
T2 construct: brain tissues from male Sprague-Dawley rats was homogenized; from tissue; host or cells: brain of male Sprague-Dawley rats, crude synaptosomal membranes
T2 sequence (P28564 whole entry): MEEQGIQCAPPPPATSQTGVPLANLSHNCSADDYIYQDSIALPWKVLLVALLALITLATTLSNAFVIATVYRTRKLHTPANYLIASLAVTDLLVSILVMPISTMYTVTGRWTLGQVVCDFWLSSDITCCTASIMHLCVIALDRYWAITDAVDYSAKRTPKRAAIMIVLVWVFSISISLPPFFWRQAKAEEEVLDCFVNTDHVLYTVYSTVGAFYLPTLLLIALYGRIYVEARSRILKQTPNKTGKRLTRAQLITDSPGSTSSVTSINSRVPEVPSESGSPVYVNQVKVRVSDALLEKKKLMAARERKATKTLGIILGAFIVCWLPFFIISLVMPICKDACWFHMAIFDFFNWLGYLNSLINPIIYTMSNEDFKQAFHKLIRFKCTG
Description: as §1, §2, §3

5HT1C receptor = target: T3, 5HT1C receptor (Bos taurus, UniProt A0AAA9SBU1); test: Inhibition of 3H-mesulergine binding to 5HT1C receptor; conditions: read-out: Inhibition of Radioligand Binding to 5HT Receptor, 1C (IC50); bovine choroid plexus membranes, 2 nM 3H-mesulergine, 25° C., 30 min, pH 7.4; mean of three experiments
T3 sequence (A0AAA9SBU1 33-457): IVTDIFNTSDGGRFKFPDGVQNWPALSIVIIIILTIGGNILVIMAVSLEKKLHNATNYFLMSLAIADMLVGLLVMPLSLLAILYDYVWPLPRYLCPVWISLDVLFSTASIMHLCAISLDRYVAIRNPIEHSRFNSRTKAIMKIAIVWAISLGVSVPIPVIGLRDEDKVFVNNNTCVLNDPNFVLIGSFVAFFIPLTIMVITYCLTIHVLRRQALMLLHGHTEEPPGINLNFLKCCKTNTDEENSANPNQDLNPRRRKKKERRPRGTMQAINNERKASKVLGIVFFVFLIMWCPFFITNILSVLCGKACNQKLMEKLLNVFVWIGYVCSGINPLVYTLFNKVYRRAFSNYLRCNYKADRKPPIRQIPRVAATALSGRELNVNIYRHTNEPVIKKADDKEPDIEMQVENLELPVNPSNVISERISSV
Description: as §1, §2, §3

5HT1D = test: Inhibition of 3H-serotonin binding to 5HT1D receptor; set-up: species or system male Sprague-Dawley); conditions: read-out: Inhibition of Radioligand Binding to 5HT Receptor, 1D (IC50), rat brain membranes, 25° C., 30 min, pH 7.4
Description: as §1, §2, §3

5HT3 receptors = target: T4, 5HT3 receptors (Rattus norvegicus, UniProt P35563); test: Inhibition of 3H-1-methyl-N-(8-methyl-8-azabicyclo[3.2.1]oct-3-yl)-1H-indazaole-3-carboxamide binding to 5HT3 receptors; set-up: species or system male Sprague-Dawley); conditions: rat brain membranes, 25° C., 30 min, pH 7.4
T4 construct: brain tissues from male Sprague-Dawley rats was homogenized; from tissue; host or cells: brain of male Sprague-Dawley rats, crude synaptosomal membranes
T4 sequence (P35563 24-483): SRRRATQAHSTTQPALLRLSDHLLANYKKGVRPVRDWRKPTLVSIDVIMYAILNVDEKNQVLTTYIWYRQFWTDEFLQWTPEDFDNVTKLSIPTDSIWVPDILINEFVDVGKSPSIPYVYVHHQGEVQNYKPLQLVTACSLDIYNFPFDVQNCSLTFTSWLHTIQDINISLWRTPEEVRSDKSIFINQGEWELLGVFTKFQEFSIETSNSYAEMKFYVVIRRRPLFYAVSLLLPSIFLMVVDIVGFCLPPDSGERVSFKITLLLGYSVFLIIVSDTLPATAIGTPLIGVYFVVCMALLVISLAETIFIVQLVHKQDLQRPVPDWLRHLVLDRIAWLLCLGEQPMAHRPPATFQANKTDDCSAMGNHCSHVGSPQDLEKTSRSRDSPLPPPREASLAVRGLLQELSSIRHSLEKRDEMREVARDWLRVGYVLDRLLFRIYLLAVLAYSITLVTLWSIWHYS
Description: as §1, §2, §3

[1] = test system: metabolism of concurrently administered drugs such as barbiturates or tricyclic antidepressants
[2] = Toxicity and therapeutic index (statements in words)

NCCC(Oc1ccc(C(F)(F)F)cc1)c1ccccc1 (racemic) [Norfluoxetine, 3-(4-trifluoromethylphenoxy)-3-phenylpropylamine]
serotonin / monoamine uptake blockade (serotonin uptake; background, known from earlier patents): block monoamine uptake, especially serotonin

NCC[C@H](Oc1ccc(C(F)(F)F)cc1)c1ccccc1 [(S)-norfluoxetine]
activity as serotonin uptake inhibitor (serotonin uptake; relative to (R)-antipode, from copending application Ser. No. 07/486,478): substantially more active than its (R)-antipode

NCC[C@@H](Oc1ccc(C(F)(F)F)cc1)c1ccccc1 [(R)-Norfluoxetine]
pIC50 (5HT1A): 4.66 | pIC50 (5HT1B): 4.62 | pIC50 (5HT1C receptor): 6.33 | pIC50 (5HT1D): 4.00 | pIC50 (5HT3 receptors): 4.92 | effect on metabolism of concurrently administered drugs [1]: little effect on metabolism of concurrently administered drugs | toxicity [2]: relatively non-toxic
